Data from patent US20080108641A1, “Compounds for treating inflammatory disorders, demyelinating disdorders and cancers” (priority 2006, published 2008).

How the values were obtained:
[1] = system: IL-4; assay: Mediator release, IL-4 (Con A-stimulated PBML, sandwich ELISA); assay type: cell-based; conditions: Homo sapiens
Procedure: In this experiment, test compound and/or vehicle were preincubated with human peripheral blood mononuclear leukocyte (PBML, 1×10^6/ml) in RPMI buffer pH 7.4 for 2 hours. Concanavalin A (Con A, 20 μg/ml) was then added to stimulate the cells overnight in 5% CO2 at 37° C. IL-4 and IL-10 cytokine levels in the conditioned medium were then quantified using a sandwich ELISA kit. Compounds were screened at 10, 1, 0.1, 0.01 and 0.001 μM.

[2] = system: colorectal cancer cell lines (HT29 & HCT116); assay: Microarray differential gene expression (CodeLink Human Whole Genome Bioarrays); assay type: cell-based
[3] = human dose of 540 mg/m^2 body surface area (as free base); cited from earlier work

## CCN(CC)CCNc1ccc2ncn3c4ccc(O)cc4c(=O)c1c23 [Symadex™]
[1]; 1 nM, read-out: % Growth Inhibition
  inhibition at 0.001 µM: 8%
[1]; 10 nM, read-out: % Growth Inhibition
  inhibition at 0.01 µM: 7%
[1]; 0.1 μM, read-out: % Growth Inhibition
  inhibition at 0.1 µM: 2%
[1]; 1 μM, read-out: % Growth Inhibition
  inhibition at 1 µM: -9%
[1]; 10 μM, read-out: % Growth Inhibition
  inhibition at 10 µM: 105%
[1]; IL-4 release
  IC50: 3.33 µM
[2]; array of 55,000 gene fragment accessions, cells grown at concentration
  number of down-regulated genes significantly represented in both cell types: 271
[2]; gene ACYP1
  MEAN FOLD CHANGE OVER CONTROL: −2.07
[2]; gene ADCYAP1
  MEAN FOLD CHANGE OVER CONTROL: −21.74
[2]; gene ADH1C
  MEAN FOLD CHANGE OVER CONTROL: −12.02
[2]; gene AGT
  MEAN FOLD CHANGE OVER CONTROL: −22.71
[2]; gene ALG5
  MEAN FOLD CHANGE OVER CONTROL: −2.71
[2]; gene ANAPC4
  MEAN FOLD CHANGE OVER CONTROL: −1.92
[2]; gene APOA1
  MEAN FOLD CHANGE OVER CONTROL: −13.15
[2]; gene ARL6IP
  MEAN FOLD CHANGE OVER CONTROL: −2.29
[2]; gene ASAH2
  MEAN FOLD CHANGE OVER CONTROL: −2.21
[2]; gene HAT1
  MEAN FOLD CHANGE OVER CONTROL: −2.63
[2]; gene HMGB1
  MEAN FOLD CHANGE OVER CONTROL: −1.97
[2]; gene HMMR
  MEAN FOLD CHANGE OVER CONTROL: −2.94
[2]; gene HNF4A
  MEAN FOLD CHANGE OVER CONTROL: −7.42
[2]; gene HNRPA2B1
  MEAN FOLD CHANGE OVER CONTROL: −1.93
[2]; gene HSGT1
  MEAN FOLD CHANGE OVER CONTROL: −2.08
[2]; gene HSPB2
  MEAN FOLD CHANGE OVER CONTROL: −13.76
[2]; gene IBSP
  MEAN FOLD CHANGE OVER CONTROL: −58.56
[2]; gene IL1RAP
  MEAN FOLD CHANGE OVER CONTROL: −11.23
[2]; gene IL1RL1
  MEAN FOLD CHANGE OVER CONTROL: −28.60
[2]; gene IL7R
  MEAN FOLD CHANGE OVER CONTROL: −25.20
[2]; gene IL13RA2
  MEAN FOLD CHANGE OVER CONTROL: −9.79
[2]; gene ITGA2B
  MEAN FOLD CHANGE OVER CONTROL: −10.64
[2]; gene ITGA9
  MEAN FOLD CHANGE OVER CONTROL: −27.91
[2]; gene ITGAE
  MEAN FOLD CHANGE OVER CONTROL: −2.12
[2]; gene ITGB3BP
  MEAN FOLD CHANGE OVER CONTROL: −2.73
[2]; gene ITSN1
  MEAN FOLD CHANGE OVER CONTROL: −15.06
[2]; gene KCNJ12
  MEAN FOLD CHANGE OVER CONTROL: −15.93
[2]; gene KCNJ15
  MEAN FOLD CHANGE OVER CONTROL: −6.83
[2]; gene KCNQ2
  MEAN FOLD CHANGE OVER CONTROL: −24.13
[2]; gene KIAA0089
  MEAN FOLD CHANGE OVER CONTROL: −7.23
[2]; gene KIF2C
  MEAN FOLD CHANGE OVER CONTROL: −2.52
[2]; gene KIF5A
  MEAN FOLD CHANGE OVER CONTROL: −11.04
[2]; gene KLRG1
  MEAN FOLD CHANGE OVER CONTROL: −24.24
[2]; gene KRT13
  MEAN FOLD CHANGE OVER CONTROL: −3.34
[2]; gene LCP2
  MEAN FOLD CHANGE OVER CONTROL: −11.85
[2]; gene LIMS2
  MEAN FOLD CHANGE OVER CONTROL: −57.61
[2]; gene LNX
  MEAN FOLD CHANGE OVER CONTROL: −87.48
[2]; gene LPAAT-E (first entry)
  MEAN FOLD CHANGE OVER CONTROL: −11.94
[2]; gene LPAAT-E (second entry)
  MEAN FOLD CHANGE OVER CONTROL: −2.40
[2]; gene LRP1B
  MEAN FOLD CHANGE OVER CONTROL: −15.01
[2]; gene LTB
  MEAN FOLD CHANGE OVER CONTROL: −12.57
[2]; gene MAD2L1
  MEAN FOLD CHANGE OVER CONTROL: −3.14
[2]; gene MAP6
  MEAN FOLD CHANGE OVER CONTROL: −12.89
[2]; gene MAPK13
  MEAN FOLD CHANGE OVER CONTROL: −2.14
[2]; gene MAPT
  MEAN FOLD CHANGE OVER CONTROL: −26.53
[2]; gene MAZ
  MEAN FOLD CHANGE OVER CONTROL: −1.89
[2]; gene MCM6
  MEAN FOLD CHANGE OVER CONTROL: −1.97
[2]; gene MCM7
  MEAN FOLD CHANGE OVER CONTROL: −2.69
[2]; gene MEA
  MEAN FOLD CHANGE OVER CONTROL: −2.39
[2]; gene MGAT4A
  MEAN FOLD CHANGE OVER CONTROL: −10.83
[2]; gene MIS12
  MEAN FOLD CHANGE OVER CONTROL: −2.20
[2]; gene MPZL1
  MEAN FOLD CHANGE OVER CONTROL: −2.04
[2]; gene MRPL1
  MEAN FOLD CHANGE OVER CONTROL: −2.02
[2]; gene MRPL11
  MEAN FOLD CHANGE OVER CONTROL: −2.97
[2]; gene MRPL13
  MEAN FOLD CHANGE OVER CONTROL: −2.16
[2]; gene MRPL23
  MEAN FOLD CHANGE OVER CONTROL: −2.29
[2]; gene MRPL39
  MEAN FOLD CHANGE OVER CONTROL: −2.20
[2]; gene MSLN
  MEAN FOLD CHANGE OVER CONTROL: −17.46
[2]; gene MT1A
  MEAN FOLD CHANGE OVER CONTROL: −16.21
[2]; gene MT2A
  MEAN FOLD CHANGE OVER CONTROL: −2.09
[2]; gene MTIF2
  MEAN FOLD CHANGE OVER CONTROL: −59.05
[2]; gene MXD3
  MEAN FOLD CHANGE OVER CONTROL: −2.66
[2]; gene MYBPC2
  MEAN FOLD CHANGE OVER CONTROL: −21.22
[2]; gene MYO15A
  MEAN FOLD CHANGE OVER CONTROL: −50.59
[2]; gene NCF1
  MEAN FOLD CHANGE OVER CONTROL: −33.67
[2]; gene NCF2
  MEAN FOLD CHANGE OVER CONTROL: −21.83
[2]; gene NDUFA6
  MEAN FOLD CHANGE OVER CONTROL: −2.51
[2]; gene NDUFB3
  MEAN FOLD CHANGE OVER CONTROL: −15.58
[2]; gene NDUFV3
  MEAN FOLD CHANGE OVER CONTROL: −10.52
[2]; gene NEB
  MEAN FOLD CHANGE OVER CONTROL: −6.89
[2]; gene NFATC1
  MEAN FOLD CHANGE OVER CONTROL: −16.69
[2]; gene NFKBIB
  MEAN FOLD CHANGE OVER CONTROL: −2.01
[2]; gene NMI
  MEAN FOLD CHANGE OVER CONTROL: −2.41
[2]; gene NMU
  MEAN FOLD CHANGE OVER CONTROL: −2.12
[2]; gene NR0B1
  MEAN FOLD CHANGE OVER CONTROL: −15.94
[2]; gene NR2E1
  MEAN FOLD CHANGE OVER CONTROL: −54.82
[2]; gene NR2E3
  MEAN FOLD CHANGE OVER CONTROL: −14.89
[2]; gene NRG1
  MEAN FOLD CHANGE OVER CONTROL: −17.54
[2]; gene NT5C3
  MEAN FOLD CHANGE OVER CONTROL: −2.08
[2]; gene NT5E
  MEAN FOLD CHANGE OVER CONTROL: −17.10
[2]; gene NTHL1
  MEAN FOLD CHANGE OVER CONTROL: −2.34
[2]; gene NUCKS
  MEAN FOLD CHANGE OVER CONTROL: −2.02
[2]; gene NUDT1
  MEAN FOLD CHANGE OVER CONTROL: −1.89
[2]; gene NUP107
  MEAN FOLD CHANGE OVER CONTROL: −2.68
[2]; gene OLR1
  MEAN FOLD CHANGE OVER CONTROL: −16.33
[2]; gene OXCT
  MEAN FOLD CHANGE OVER CONTROL: −2.68
[2]; gene PAFAH1B1
  MEAN FOLD CHANGE OVER CONTROL: −12.85
[2]; gene PAFAH1B2
  MEAN FOLD CHANGE OVER CONTROL: −2.25
[2]; gene PAICS
  MEAN FOLD CHANGE OVER CONTROL: −2.03
[2]; gene PCDH7
  MEAN FOLD CHANGE OVER CONTROL: −19.65
[2]; gene PCSK2
  MEAN FOLD CHANGE OVER CONTROL: −16.89
[2]; gene PDCD5
  MEAN FOLD CHANGE OVER CONTROL: −2.21
[2]; gene PDE11A
  MEAN FOLD CHANGE OVER CONTROL: −16.85
[2]; gene PECAM1
  MEAN FOLD CHANGE OVER CONTROL: −17.53
[2]; gene PFKL
  MEAN FOLD CHANGE OVER CONTROL: −10.55
[2]; gene PHAX
  MEAN FOLD CHANGE OVER CONTROL: −2.17
[2]; gene PHF5A
  MEAN FOLD CHANGE OVER CONTROL: −2.95
[2]; gene PIR51
  MEAN FOLD CHANGE OVER CONTROL: −3.73
[2]; gene PLK4
  MEAN FOLD CHANGE OVER CONTROL: −2.39
[2]; gene PLXNA3
  MEAN FOLD CHANGE OVER CONTROL: −8.04
[2]; gene SULT4A1, text statement
  fold down-regulation of SULT4A1: ~300 fold
[2]; gene SYNE1, text statement
  fold down-regulation of the SYNE1 spectrin repeats: 1500 fold
[3]
  tolerability of single dose: safe and well-tolerated
